From patent publication US8227510B2, “Combine use of pterostilbene and quercetin for the production of cancer treatment medicaments” (Universitat de Valencia, priority 2004, dated 2012)
Marks after values point to notes of the source that are not given here.

Key:
[1] = tested on: Bcl-2; experiment: Intracellular levels of Bcl-2 in B16M-F10/Tet-Bcl-2 cells (enzyme immunoassay); assay type: cell-based, mouse; conditions: same exposure, none 160 ± 25
Description: The Tet-off gene expression system (Clontech, Palo Alto, Calif., USA) was used for inserting the mouse bcl-2 gene and transfecting the B16M-F10 cells, as described previously (26) and following the manufacturer's instructions. The protein Bcl-2 was quantified in the soluble cytosolic fraction by enzyme immunoassay (27) using a test based on a monoclonal antibody from Sigma (San Luis, Mo., USA) (a Bcl-2 unit was defined as the amount of Bcl-2 protein in 1000 non-transfected B16M-F10 cells).
(§1) This methodology makes it possible for the effect of PTER and QUER to be studied in vivo. For this purpose, mice were inoculated with B16M-F10 control cells or B16M-F10/Tet-Bcl-2 which overexpressed Bcl-2. […] The number of adhering cells shown in the table was calculated at 60 minutes postinjection (no significant differences were found when the measurements were effected at 30, 120, 180, 240 or 360 minutes postinjection, data not shown). The number of intact cells was calculated at 6 hours postinjection. […] The growth of metastases in the liver was evaluated as stated in the corresponding section of the description, and in this case the mice were treated daily (×10 days) with t-PTER and/or QUER (20 mg/kg of body weight) administered i.v. (the data are mean values±SD corresponding to 25 mice per group). […]

[2] = tested on: B16M-F10 cells; experiment: In vivo microscopy: B16M-F10 cells adhering to the HSE and intact cells; set-up: species or system mice; conditions: for Intact cells: B16M-F10, 6 hours postinjection, none 83 ± 14; for Number of cells adhering to the HSE: B16M-F10 precultured with polyphenols, 60 minutes postinjection, none 45 ± 7
Method: (§2) Hepatic metastases were induced by i.v. inoculations (portal vein), in anesthetized mice (Nembutal, 50 mg/kg i.p.), of 4×10^5 viable B16M-F10 cells suspended in 0.2 ml of DMEM. The mice were sacrificed by cervical dislocation 10 days after inoculation. The livers were fixed by immersion for 24 hours at 22° C. in 10% formaldehyde in PBS (pH 7.4), and were subsequently embedded in paraffin. The density of metastases (average number of foci/100 mm^3 of liver detected in fifteen sections of 10×10 mm^2 per liver) and the volume of metastases (average percentage of liver volume occupied by metastases) were determined as described previously (22).
(§3) This methodology makes it possible for the effect of PTER and QUER to be studied in vivo. For this purpose, mice were inoculated with B16M-F10 control cells or B16M-F10/Tet-Bcl-2 which overexpressed Bcl-2. Both subgroups of cells were cultivated beforehand in the absence or in the presence of t-PTER and QUER. B16M-F10 cells were cultivated for 72 hours. t-RESV (12 μM), t-PTER (40 μM), and QUER (20 μM) were added at 6, 30 and 54 hours of culture time, and were present in each case for just 60 minutes. Then they were removed from the culture flasks by washing (3 times with PBS) and the medium was renewed. The levels of Bcl-2 in the B16M-F10 control cells and cells treated with Tet-Bcl-2 were 24±5 and 105±14 units/mg of protein, respectively (n=5 in each case, P<0.01). The number of adhering cells shown in the table was calculated at 60 minutes postinjection (no significant differences were found when the measurements were effected at 30, 120, 180, 240 or 360 minutes postinjection, data not shown). The number of intact cells was calculated at 6 hours postinjection. The experimental microscopy data in vivo are mean values±SD corresponding to 4-5 different experiments. The growth of metastases in the liver was evaluated as stated in the corresponding section of the description, and in this case the mice were treated daily (×10 days) with t-PTER and/or QUER (20 mg/kg of body weight) administered i.v. (the data are mean values±SD corresponding to 25 mice per group). A similar method and equal number of mice per group were used for evaluating the survival of the carrier animals. The test of significance relates, in all the groups, to comparison between cases with PTER and/or QUER and cases without additions (*P<0.05 and **P<0.01), and to comparison between the B16M-F10/Tet-Bcl-2 cells with the B16M-F10 control cells (^+P<0.05, ^++P<0.01). […] This is the first time that the combined administration in vivo of natural polyphenols has induced inhibition of metastatic growth of a highly malignant tumor and an increase in the survival of the carrier.

[3] = tested on: B16M-F10/Tet-Bcl-2 cells; experiment: In vivo microscopy: B16M-F10/Tet-Bcl-2 cells adhering to the HSE and intact cells; set-up: species or system mice; conditions: for Intact cells: B16M-F10/Tet-Bcl-2, 6 hours postinjection, none 85 ± 13; for Number of cells adhering to the HSE: B16M-F10/Tet-Bcl-2 precultured with polyphenols, 60 minutes postinjection, none 42 ± 6
Method: as §2, §3

[4] = tested on: B16M-F10/Tet-Bcl-2; experiment: Survival of mice carrying B16M-F10/Tet-Bcl-2 metastases; assay type: in vivo; conditions: 20 mg/kg i.v. daily, none 12 ± 1
Method: as §2
as §1, with “vivo.” for “vivo. For this purpose, mice were inoculated with B16M-F10 control cells or B16M-F10/Tet-Bcl-2 which overexpressed Bcl-2.”

[5] = rabbits, i.v., cited from earlier work
[6] = tested on: B16M-F10 cells / HSE; conditions: as described previously (ref. 14); cited from earlier work
[7] = tested on: B16M-F10 cells / HSE; conditions: as described previously (ref. 14); cited from earlier work; remark: listed apart in the source
[8] = tested on: VCAM-1; conditions: cited from earlier work

SMILES | Intracellular levels of Bcl-2 before inoculation [1] | Intact cells [2] | Number of cells adhering to the HSE [2] | Intact cells [3] | Number of cells adhering to the HSE [3] | Survival of the carrier [4] [days] | highest concentration in plasma ([5]; 5 minutes after administration) [µM] | time in which plasma concentration falls to ~1 μM [5] [min] | inhibition of adhesion of tumor cells to the endothelium [6] [%] | effect on HSE-induced cytotoxicity on the metastatic cells [7] | concentration at which expression of VCAM-1 is inhibited [8] [µM]
COc1cc(/C=C/c2ccc(O)cc2)cc(OC)c1 [PTER, pterostilbene] | 151 ± 18^++ units/mg protein | 85 ± 17 percentage of cells adhering t | 20 ± 5** average number per lobe | 91 ± 20 percentage of cells adhering t | 21 ± 4** average number per lobe | 12 ± 2 |  |  |  |  | 
O=c1c(O)c(-c2ccc(O)c(O)c2)oc2cc(O)cc(O)c12 [QUER, quercetin] | 125 ± 13*^++ units/mg protein | 52 ± 8** percentage of cells adhering t | 46 ± 9 average number per lobe | 87 ± 13^++ percentage of cells adhering t | 40 ± 7 average number per lobe | 13 ± 2 | ~43 | 60 |  |  | 
Oc1ccc(C=Cc2cc(O)cc(O)c2)cc1 [RESV, resveratrol, reference compound] |  |  |  |  |  |  |  |  | ~47 | without increasing the HSE-induced cytotoxicity | 1
